# Molecular target: T1, APOL1 (tet-inducible transgenic APOL1 T-REx-HEK293 cell lines) (Homo sapiens, UniProt O14791)
# T1 sequence (O14791 1-398 S342G/I384M): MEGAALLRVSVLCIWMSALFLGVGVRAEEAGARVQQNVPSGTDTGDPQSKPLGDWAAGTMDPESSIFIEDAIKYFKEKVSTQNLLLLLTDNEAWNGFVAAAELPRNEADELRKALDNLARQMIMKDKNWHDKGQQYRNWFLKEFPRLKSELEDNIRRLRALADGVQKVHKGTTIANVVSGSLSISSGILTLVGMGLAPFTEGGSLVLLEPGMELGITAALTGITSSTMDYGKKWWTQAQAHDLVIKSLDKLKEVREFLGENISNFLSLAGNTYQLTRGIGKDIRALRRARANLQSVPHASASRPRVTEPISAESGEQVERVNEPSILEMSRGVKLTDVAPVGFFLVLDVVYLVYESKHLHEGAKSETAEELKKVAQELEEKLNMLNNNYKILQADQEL
# Test: MultiTox-Fluor Multiplex Cytotoxicity Assay for APOL1 inhibitor properties
# Assay type: cell-based
# Settings: APOL1 induced with 50 ng/mL tet, 24 hours with compound, ratio of dead to live cells, top concentration 10 μM; APOL1 variant (G0/G1/G2) not stated; read-out: IP50 (nM) (i.e., IC50 for cell proliferation)
# Description: The MultiTox-Fluor Multiplex Cytotoxicity Assay is a single-reagent-addition, homogeneous, fluorescence assay that measures the number of live and dead cells simultaneously in culture wells. The assay measures cell viability and cytotoxicity by detecting two distinct protease activities. The live-cell protease activity is restricted to intact viable cells and is measured using a fluorogenic, cell-permeant peptide glycyl-phenylalanylamino fluorocoumarin (GF-AFC) substrate. The substrate enters intact cells, where it is cleaved to generate a fluorescent signal proportional to the number of living cells. […] A second, cell-impermeant, fluorogenic peptide substrate (bis-AAF-R110 Substrate) is used to measure dead-cell protease that has been released from cells that have lost membrane integrity. A ratio of dead to live cells is used to normalize data.
# Briefly, the tet-inducible transgenic APOL1 T-REx-HEK293 cell lines were incubated with 50 ng/mL tet to induce APOL1 in the presence of 3-(2-(4-fluorophenyl)-1H-indol-3-yl)-N-((3S,4R)-4-hydroxy-2-oxopyrrolidin-3-yl)propenamide at 10.03, 3.24, 1.13, 0.356, 0.129, 0.042, 0.129, 0.0045, 0.0015, 0.0005 μM in duplicate for 24 hours in a humidified 37° C. incubator. The MultiTox reagent was added to each well and placed back in the incubator for an additional 30 minutes. The plate was read on the EnVision plate reader. A ratio of dead to live cells was used to normalize, and data was imported, analyzed, and fit using Genedata Screener (Basel, Switzerland) software. Data was normalized using percent of control, no tet (100% viability), and 50 ng/mL tet treated (0% viability), and fit using Smart Fit. The reagents, methods, and complete protocol for the MultiTox assay are described below.
# Human embryonic kidney (HEK293) cell lines containing a tet-inducible expression system (T-REx™; Invitrogen, Carlsbad, CA) and Adeno-associated virus site 1 pAAVS1-Puro-APOL1 G0 or pAAVS1-Puro-APOL1 G1 or pAAVS1-Puro-APOL1 G2 Clones G0 DC2.13, G1 DC3.25, and G2 DC4.44 were grown in a T-225 flask at ˜90% confluency in cell growth media (DMEM, 10% Tet-free FBS, 2 mM L-glutamine, 100 Units/mL penicillin-streptomycin, 5 μg/mL blasticidin S HCl, 1 μg/mL puromycin dihydrochloride). Cells were washed with DPBS and then trypsinized to dissociate from the flask. Media was used to quench the trypsin, cells were then pelleted at 200 g and resuspended in fresh cell assay media (DMEM, 2% Tet-free FBS, 2 mM L-glutamine, 100 Units/mL penicillin-streptomycin). Cells were counted and diluted to 1.17×10^6 cells/mL. 20 μL of cells (23,400/well) were dispensed in every well of a 384-well Poly-D-Lysine coated plate using the Multidrop dispenser. The plates were then incubated at room temperature for one hour.
# Tetracycline is needed to induce APOL1 expression. 1 mg/mL tet stock in water was diluted to 250 ng/mL (5×) in cell assay media. 60 μL of cell assay media (no tet control) was dispensed in columns 1 and 24, and 60 μL of 5×tet in 384-PP-round bottom plate was dispensed in columns 2 to 23 with the Multidrop dispenser.
# Assay ready plates from the Global Compound Archive were ordered using template 384_APOL1Cell_DR10n2_50 uM_v3. Compounds were dispensed at 200 nL in DMSO. The final top concentration was 10 μM with a 10 point 3-fold dilution in duplicate in the MultiTox assay.
# 20 μL was transferred from the 5×tet plate to the ARP and mixed, then 5 μL of 5×tet and the compounds were transferred to the cell plate and mixed using the Bravo. The cell plate was placed in the humidified 37° C. 5% CO2 incubator for 24 hours.
# The MultiTox-Fluor Multiplex Cytotoxicity Assay was performed in accordance with the manufacturer's protocol. After cells were incubated with tet and compound for 24 hours, 25 μL of 1×MultiTox reagent was added to each well using the Multidrop dispenser; the plates were placed on a plate shaker (600 rpm) for 2 minutes, then centrifuged briefly and placed back in the 37° C. incubator for 30 minutes. […]
row,SMILES,IC50
1,C[C@H]1C[C@@](O)(c2ccc(C(F)(F)F)c(OC(F)(F)F)c2)C[C@@H](c2cn(C)nn2)N1 [Compound 50],≤ 50 nM
2,"C[C@H]1C[C@@](O)(C2CCCCC2)C[C@@H](c2cn(C)nn2)N1 [Compound 60, (2S,4S,6S)-4-cyclohexyl-2-methyl-6-(1-methyltriazol-4-yl)piperidin-4-ol]",≥ 500 nM
3,C[C@H]1C[C@@](O)(c2csc(C(F)(F)F)c2)C[C@@H](c2cn(C)nn2)N1 [Compound 14],50 to 500 nM
4,C[C@H]1C[C@@](O)(c2ccc(Br)cc2)C[C@@H](c2cn(C)nn2)N1 [Compound 27],≤ 50 nM
5,C[C@H]1C[C@@](O)(c2ccc(C(F)(F)F)c(Cl)c2)C[C@@H](c2cn(C)nn2)N1 [Compound 36],≤ 50 nM
6,C[C@H]1C[C@@](C(N)=O)(c2ccc(Cl)cn2)C[C@@H](c2cn(C)nn2)N1 [Compound 64],≥ 500 nM
7,C[C@H]1C[C@@](O)(c2ccc(Cl)c(C(F)(F)F)c2)C[C@@H](c2cn(C)nn2)N1 [Compound 33],≤ 50 nM
8,"C[C@H]1C[C@@](C#N)(c2ccc(Cl)cn2)C[C@@H](c2cn(C)nn2)N1 [Compound 63, (2S,4S,6S)-4-(5-chloropyridin-2-yl)-2-methyl-6-(1-methyl-1H-1,2,3-triazol-4-yl)piperidine-4-carbonitrile]",≥ 500 nM
9,"C[C@H]1C[C@@](C#N)(c2ccc(C(F)(F)F)cc2)C[C@@H](c2cn(C)nn2)N1 [Compound 46, (2S,4S,6S)-2-methyl-6-(1-methyltriazol-4-yl)-4-[4-(trifluoromethyl)phenyl]piperidine-4-carbonitrile]",50 to 500 nM
10,C[C@H]1C[C@@](O)(c2ccnc(C(F)(F)F)c2)C[C@@H](c2cn(C)nn2)N1 [Compound 35],≥ 500 nM
11,"C[C@H]1C[C@@H](c2ccc(C(F)(F)F)cc2)C[C@@H](c2cn(C)nn2)N1 [Compound 66, (2S,4R,6S)-2-methyl-6-(1-methyltriazol-4-yl)-4-[4-(trifluoromethyl)phenyl]piperidine]",50 to 500 nM
12,C[C@H]1C[C@@](O)(c2ccc3cn[nH]c3c2)C[C@@H](c2cn(C)nn2)N1 [Compound 52],≤ 50 nM
13,COc1cc(Cl)ccc1[C@@]1(O)C[C@@H](c2cn(C)nn2)N[C@@H](C)C1 [Compound 20],≥ 500 nM
14,C[C@H]1C[C@@](O)(c2ccc(C(F)(F)C(F)(F)F)cc2)C[C@@H](c2cn(C)nn2)N1 [Compound 47],≤ 50 nM
15,C[C@H]1C[C@@](O)(c2ccc(Cl)nc2)C[C@@H](c2cn(C)nn2)N1 [Compound 17],50 to 500 nM
16,C[C@H]1C[C@@](O)(c2ccccc2)C[C@@H](c2cn(C)nn2)N1 [Compound 7],≥ 500 nM
17,C[C@H]1C[C@@](O)(c2ccc(Cl)cn2)C[C@@H](c2cn(C)nn2)N1 [Compound 18],50 to 500 nM
18,C[C@H]1C[C@@](O)(c2ccc(C#N)cc2)C[C@@H](c2cn(C)nn2)N1 [Compound 30],50 to 500 nM
19,C[C@H]1C[C@@](O)(c2ccc(C(F)(F)F)c(O)c2)C[C@@H](c2cn(C)nn2)N1 [Compound 43],≤ 50 nM
20,C[C@H]1C[C@@](O)(c2cccc(Cl)c2)C[C@@H](c2cn(C)nn2)N1 [Compound 3],50 to 500 nM

# — patent US12612379B2, “Inhibitors of APOL1 and methods of using same” (Vertex Pharmaceuticals Incorporated, priority 2021, dated 2026)
